This passage reports IC50 results from patent publication US12275715B2, “Pyridin-2(1H)-one quinolinone derivatives as mutant-isocitrate dehydrogenase inhibitors” (FORMA Therapeutics, Inc., priority 2014, dated 2025).

Assay [1] deals with HCT116 isogenic IDH1-R132C mutant cells. The assay can be described thus: Cellular 2-HG assay using HCT116 mutant IDH1 cells (R132C). Type of assay: cell-based. To be noted: Homo sapiens, HCT-116; cellular 2-HG inhibition, 24 hours, RapidFire mass spectrometry; read-out: HCT116 IDH1 R132C Range. As for the experimental part:
(§1) HCT116 isogenic IDH1-R132H and IDH1-R132C mutant cells were cultured in growth media (McCoy's 5A, 10% fetal bovine serum, 1× antibiotic-antimycotic solution and 0.3 mg/mL G418) in 5% CO2 in an incubator at 37° C. To prepare the assay, cells were trypsinized and resuspended in assay media (McCoy's 5A with no L-glutamine, 10% fetal bovine serum, 1× antibiotic-antimycotic solution and 0.3 mg/mL G418). An aliquot of 10,000 cells/100 μL was transferred to each well of a clear 96-well tissue culture plate. The cells were incubated in 5% CO2 at 37° C. in an incubator overnight to allow for proper cell attachment. An aliquot of 50 μL of compound containing assay media were then added to each well and the assay plate was kept in 5% CO2 at 37° C. in an incubator for 24 hours. The media was then removed from each well and 150 μL of a methanol/water mixture (80/20 v/v) was added to each well. The plates were kept at −80° C. freezer overnight to allow for complete cell lysis. An aliquot of 125 μL of extracted supernatant was analyzed by RapidFire high-throughout-mass spectrometry (Agilent) to determine the cellular 2-HG level. The IC50 of a given compound was calculated by fitting the dose response curve of cellular 2-HG inhibition at a given concentration with the four parameter logistic equation

Assay [2] deals with HCT116 isogenic IDH1-R132H mutant cells. The assay can be described thus: Cellular 2-HG assay using HCT116 mutant IDH1 cells (R132H). The settings on record: Homo sapiens, HCT-116; cellular 2-HG inhibition, 24 hours, RapidFire mass spectrometry; read-out: HCT116 IDH1 R132H Range. The format is cell-based. As for the experimental part:
as §1

Assay [3] deals with IDH1-R132C recombinant protein (Homo sapiens, UniProt O75874, R132C). The assay can be described thus: IDH1-R132C enzymatic assay (NADPH consumption, diaphorase/resazurin readout). The settings on record: read-out: Enzyme IDH1 R132C Range. Type of assay: biochemical. As for the experimental part:
(§2) Assays were performed in a 384-well black plate. […] After the plate was centrifuged briefly, an aliquot of 10 μL of 2 mM α-ketoglutarate and 20 μM NADPH solution prepared in assay buffer was then added to each well and the reaction was maintained at 25° C. for 45 minutes. An aliquot of 10 μL of diaphorase solution (0.15 U/mL diaphorase and 30 μM Resazurin in assay buffer) was added to each well. […] The IC50 of a given compound was calculated by fitting the dose response curve of inhibition of NADPH consumption at a given concentration with the four parameter logistic equation.
(In general: Alamar Blue is a resazurin reagent that responds to reducing activity.)

For assay [4], the target named is IDH1-R132H recombinant protein (Homo sapiens, UniProt O75874, R132H). The assay can be described thus: IDH1-R132H enzymatic assay (NADPH consumption, diaphorase/resazurin readout). The format is biochemical. The settings on record: read-out: Enzyme IDH1 R132H Range. As to the method: as §2
Chain of IDH1-R132H recombinant protein (O75874 whole entry R132H): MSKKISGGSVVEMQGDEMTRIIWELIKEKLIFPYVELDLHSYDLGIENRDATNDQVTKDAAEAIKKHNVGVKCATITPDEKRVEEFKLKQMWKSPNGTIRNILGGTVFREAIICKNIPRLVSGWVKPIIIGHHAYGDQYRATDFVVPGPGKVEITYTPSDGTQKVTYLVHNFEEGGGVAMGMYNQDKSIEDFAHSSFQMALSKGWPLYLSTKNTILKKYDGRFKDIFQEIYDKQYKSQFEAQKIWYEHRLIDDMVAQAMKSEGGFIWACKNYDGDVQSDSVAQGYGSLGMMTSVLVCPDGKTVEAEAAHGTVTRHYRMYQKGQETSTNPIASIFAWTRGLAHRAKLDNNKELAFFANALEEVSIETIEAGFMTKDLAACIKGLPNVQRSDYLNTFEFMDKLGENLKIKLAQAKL

Chain of IDH1-R132C recombinant protein (O75874 whole entry R132C): as the sequence (O75874 whole entry R132H) above, with H132C counted along it

`CC(Nc1ccc(C#N)n(C)c1=O)c1cc2cc(Cl)c(F)cc2[nH]c1=O` (centres unmarked) [Compound I-19, 5-{[1-(6-chloro-7-fluoro-2-oxo-1,2-dihydroquinolin-3-yl)ethyl]amino}-1-methyl-6-oxo-1,6-dihydropyridine-2-carbonitrile]: the IC50 in assay [1] lay in the range of 10 to 100 nM; in assay [2], 10 to 100 nM; in assay [3], 100 to 1000 nM; in assay [4] it was 10 to 100 nM.
For the compound `C[C@H](Nc1ccc(C#N)n(C)c1=O)c1cc2cc(Cl)cc(F)c2[nH]c1=O` [Compound I-30, 5-{[(1S)-1-(6-chloro-8-fluoro-2-oxo-1,2-dihydroquinolin-3-yl)ethyl]amino}-1-methyl-6-oxo-1,6-dihydropyridine-2-carbonitrile], the IC50 in assay [1] fell in the range of 100 to 1000 nM; in assay [2] it was 10 to 100 nM; in assay [3] it was 100 to 1000 nM; in assay [4], 10 to 100 nM.
With `C[C@H](Nc1ccc(C#N)n(C)c1=O)c1cc2cc(Cl)cnc2[nH]c1=O` [Compound I-31, 5-{[(1S)-1-(6-chloro-2-oxo-1,2-dihydro-1,8-naphthyridin-3-yl)ethyl]amino}-1-methyl-6-oxo-1,6-dihydropyridine-2-carbonitrile], the IC50 is over 1000 nM in assay [1], 10 to 100 nM in assay [2], 1000 to 10000 nM in assay [3] and 100 to 1000 nM in assay [4].
The corresponding values for `C[C@@H](Nc1ccc(C#N)n(C)c1=O)c1nc2cc(Cl)ccc2[nH]c1=O` [Compound I-32, 5-{[(1R)-1-(7-chloro-3-oxo-3,4-dihydroquinoxalin-2-yl)ethyl]amino}-1-methyl-6-oxo-1,6-dihydropyridine-2-carbonitrile] are over 1000 nM, over 1000 nM, 1000 to 10000 nM and 100 to 1000 nM.
For `C[C@H](Nc1ccc(C#N)n(C)c1=O)c1nc2cc(Cl)ccc2[nH]c1=O` [Compound I-33, 5-{[(1S)-1-(7-chloro-3-oxo-3,4-dihydroquinoxalin-2-yl)ethyl]amino}-1-methyl-6-oxo-1,6-dihydropyridine-2-carbonitrile] the same measures were over 1000 nM, 100 to 1000 nM, 1000 to 10000 nM and 100 to 1000 nM.
